# Test results: patent US8569482B2, “Nanoparticulate probe for in vivo monitoring of tissue oxygenation” (priority 2003, dated 2013)
# “And” between values parts separate entries of the source, which are not always exact repeats. Equal values may be shown once. “Also recorded” adds a separate entry of the source.
# Assays:
# [1] = test system: mouse aortic endothelial cells (MAECs); format: cell-based
# [2] = test system: bovine lung microvascular endothelial cells (BLMVECs)
# Description: Bovine Lung Microvasular Endothelial Cells (BLMVECs) Culture The BLMVECs used in this study were obtained from the VEC Technologies, Inc, New York. BLMVECs cultured in MEM were maintained in 75 mm flasks at 37° C. in a humidified atmosphere of 5% CO2/95% air and grown to contact-inhibited monolayers with a typical cobblestone morphology [157]. Cells from each primary flask were detached with 0.05% trypsin, resuspended in fresh medium, and cultured in complete medium to 70% confluency for other studies. Cells from passages 10-14 were used in all the experiments.
# Preparation of Particulates for Cell Culture Studies Microcrystalline particulates of LiNc-BuO were suspended in complete MEM medium (10 mg/0.5 ml) and sonicated for 30 sec pulse for ten times on ice with a probe sonicator at a setting of 5. The particulate suspension was cooled for 1 min between two successive 30 sec bursts of sonication. At the end of sonication, the suspension was placed on ice for exactly 2 min to allow the heavier particulates to settle down at the bottom of the tube and the supernatant liquid was transferred to a separate tube for intracellular delivery. The solution contained fine particulates of LiNc-BuO with a particulate size <2 μm. All the preparations were carried out under sterile conditions.
# Internalization of Particulates into Endothelial Cells BLMVECs, at 70% confluence (10^4 cells/35 mm dish), in 1 ml complete MEM were treated with 50 μl of LiNc-BuO particulate suspension that contained particulates of <2 μm prepared by procedure as described under Materials and Methods. The cells were maintained at 37° C. under 95% air/5% CO2 environment. At 6 h intervals, for 72 h, cells were examined under light microscope for internalization of LiNc-BuO particulates. […] The cell pellet was resuspended in MEM containing glucose (0.5 g per 500 ml), at a density of 2×10^5 cells/ml and used for EPR analysis. Cells after LiNc-BuO internalization and repeated washings were photographed under an inverted microscope while still adherent to the substratum of the 35 mm dish. Cell viability was assessed by light microscopy and Alamar Blue assay according to the manufacturer's recommendations. Cell separation by trypsinization was avoided to keep the cell morphology and function in tact.
# A 20 μL volume of the cell suspension containing 4,000 cells and 10 μM TAM was drawn into a gas-permeable Teflon tube and subjected to EPR spectroscopy as described below. The measurements were also carried out with Menadione (50 μM) and KCN (100 μM).
# EPR Measurements The EPR measurements were carried out using a Bruker X-band (9.8 GHz) spectrometer (Bruker Instruments, Karlshrue, Germany) equipped with TM110 cavity. EPR spectral acquisitions were performed using custom-developed data acquisition software (SPEX) that was capable of fully automated data acquisition and processing. Unless otherwise mentioned, the EPR line-widths reported are peak-to-peak widths (.Bpp) of the first derivative spectra.
# Simultaneous Measurements of LiNc-BuO and TAM Line-Shapes LiNc-BuO and TAM were used as site specific oximetry probes to measure intra- and extracellular oxygen concentration, respectively. Both LiNc-BuO and TAM give a single-line EPR spectrum, whose amplitude (intensity) and width depend on the amount/concentration of the probe and oxygen, respectively.
# [3] = test system: K56 (an erythroleukemic cell line) and A 431 (an epidermal carcinoma cell line); settings: 200 μM; cited from earlier work
# [4] = Reduction of particle size using high frequency ultrasound; format: physicochemical; settings: after 20 kHz then 269-1062.4 kHz sonication in water
# Description: LiNc-BuO particles were crushed to a fine powder using a spatula. LiNc-BuO (20 mg) was suspended in […] of water without any additives (a total of 5 samples were made). The samples were then sonicated at 20 kHz frequency. 20 kHz sonolysis was conducted at a power setting of “2” for a total time of 5 minutes. All 5 samples were sonicated in this way. The samples were then allowed to sit overnight. The following day, the supernatant was extracted from all samples and placed in a measuring cylinder to make a 5 ml sample of suspended, small particles in aqueous solution. 1 ml of this stock was used to determine the particle size. The remaining 4 ml stock LiNc-BuO suspension was sonicated at various frequencies in the following way: 1 ml stock was placed in a test tube and suspended in the ultrasound bath which was operated at either 269, 354, 803 or 1062.4 kHz and a power of 60 W for a total time of 10 minutes. The 1 ml sample was then diluted to 2 ml using Milli-Q filtered water and the particle size determined. […] The procedure yielded particulates with mean size, 240 nm, with a min size, 72 nm.
# [5] = test system: gastrocnemius muscle tissue of C3H mice; assay: Long-term stability and oxygen response of particulates implanted in gastrocnemius muscle; format: in vivo; settings: versus original unimplanted particulate, through 180 day study
# Description: Animal Studies Female C3H mice were used in the present work. The mice were supplied through the Frederick Cancer Research Center Animal Production, Frederick, Md. The animals were received at 6 weeks of age and housed five per cage in climate-controlled rooms and allowed food and acidified water ad lib. The animals were on average 50 days old at the time of experimentation and weighed 25±3 g. Experiments were conducted according to the principles outlined in the Guide for the Care and Use of Laboratory Animals prepared by the Institute of Laboratory Animal Resources, National Research Council.
# Implantation of LiNc-BuO in Tumor and Gastrocnemius Muscle of Mice Mice were anesthetized with breathing of isoflurane (1.5%)—air mixture delivered through a nose cone. […]
# Stability in Tissues In order to evaluate the long-term stability of these particulates in tissues, we implanted the particulates in the gastrocnemius muscle tissue of mice and performed repeated measurements of pO2 in the same animals over a period of time. […] The EPR spectrum of the particulate in the leg was recorded periodically up to 180 days following the implantation of particulate (FIG. 4). […] Mice were periodically sacrificed through the 180 day study period and tissue pO2 values were assessed to verify the registration of anoxic pO2 in the dead tissue. […]
# [6] = Effect of biological oxidoreductants, pH and radiation on EPR stability and oxygen response; format: physicochemical
# Excerpt: Effect of Biological Oxidoreductants, pH, Temperature, and Radiation Since our goal was to use the newly synthesized particulate material for biological applications, we thoroughly investigated the EPR stability (paramagnetism) as well as sensitivity of the EPR line-width to molecular oxygen in presence of a variety of biological oxidants, reductants, pH and radiation. […] We also observed that pH of the medium in the range 2-10 had no effect on their EPR sensitivity to oxygen. We also treated the particulates with 15.5 Gy of Cobalt-60 γ-ray irradiation for 10 min and found no effect on the EPR properties of the particulates.
# [7] = test system: Human arterial smooth muscle cells (HASMCs)
# Description: Cultute of Smooth Muscle Cells Human arterial smooth muscle cells (HASMCs) were obtained from Clonetics, San Diego, Calif. at passage 4. Cells were cultured and passed in Ham's medium containing 225 ml of DMEM, 225 ml of F-12 medium, 50 ml of FBS (10%), 5 ml of glutamate and 5 ml of antibiotics in a final volume of 500 ml. Cell cultures were maintained at 37° C. under 95% air/5% CO2 environment in 35 mm dishes. HASMCs up to passage 11 were used in the current study.
# Preparation of Particulates for Cell Culture Studies Fine crystals of freshly synthesized LiNc-BuO were suspended in Ham's medium (10 mg/0.5 ml) and sonicated ten times for 30 sec on ice with a probe sonicator at a setting of 5. The particulate mixture was cooled on ice for 1 min between two successive 30 sec burst of sonication. […] The size of the particulates for intracellular delivery was <2 μm as determined by optical microscopy.
# Internalization of Particulates into Smooth Muscle Cells HMSMCs, at 70% confluence (10^4 cells/dish), in 1 ml Ham's medium were treated with 50 μl of LiNc-BuO particulate suspension that contained particulates of <2 μm prepared by the procedure as mentioned before. […] Cell viability was assessed by light microscopy and Alamar Blue assay according to the manufacturer's recommendations.
# [8] = particulates <2 μm, within 18 h
# [9] = switching gas between nitrogen and room air
compound,measurement,setting,value
"c1ccc2c(c1)[I+]c1ccccc1-2 [DPI, diphenyleneiodonium chloride]",effect on oxygen consumption rate (OCR),[1],complete inhibition of oxygen consumption; also recorded: complete inhibition of the OCR; also recorded: completely blocked
CC1=CC(=O)c2ccccc2C1=O [menadione],effect on intra- and extracellular pO2 and oxygen gradient,"[2]; menadione 50 μM, cyanide 100 μM, listed as Menadione",did not affect significantly
same,increase of intra- and extracellular pO2,[3],10-15%
same,effect on oxygen consumption rate (OCR),[1],increased rates of oxygen consumption; also recorded: increased the OCRs
same,increase in OCR,[1]; 50 μM,two-fold increase
same,effect on OCR at lower concentrations,"[1]; 10 and 50 μM, measured immediately",significant increase in the OCR
same,effect on OCR at higher concentrations,"[1]; 100 and 200 μM, measured immediately",decrease in the OCR; also recorded: significantly less compared to the control values
C=C(C)[C@H]1Cc2c(ccc3c2O[C@@H]2COc4cc(OC)c(OC)cc4[C@@H]2C3=O)O1 [rotenone],effect on oxygen consumption rate (OCR),[1],complete inhibition of oxygen consumption; also recorded: complete inhibition of the OCR; also recorded: completely inhibited the consumption of oxygen
"Lithium 5,9,14,18,23,27,32,36-octa-n-butoxy-2,3-naphthalocyanine [LiNc-BuO]","cytotoxicity (light microscopy, Alamar Blue)",[2],no cytotoxicity
same,viability of cells that internalized probe (Trypan blue exclusion),[2],> 95%
same,mean spin density of particulates internalized in a single cell,[2]; in comparison with TAM standard,6×10^11 spins/cell
same,cells that internalized the particulates,[2]; [8],~95%
same,mean particle size,[4],240 nm
same,min particle size,[4],72 nm
same,oxygen sensitivity of particulates recovered from dead tissue,[5],not changed
same,effect of gamma irradiation on EPR properties,"[6]; 15.5 Gy Cobalt-60, 10 min",no effect
same,effect of pH on EPR sensitivity to oxygen,[6]; pH 2-10,no effect
same,effect of oxidants and reductants on EPR spectrum or oxygen response,"[6]; superoxide, hydroxyl, H2O2, singlet oxygen, alkylperoxyl, nitric oxide, GSH, ascorbate, 30 min",did not show any effect
same,spin density relative to LiPc,,seven-fold higher
same,anoxic peak-to-peak EPR line-width,"0% oxygen, X-band, room temperature",210 mg
same,peak-to-peak EPR line-width in room air,20.9% oxygen (159 mmHg),1550 mg
same,peak-to-peak EPR line-width in 100% oxygen,"100% oxygen, 760 mmHg",6675 mg
same,microwave power saturation,X-band,not saturable for up to 25 mW; also recorded: nonsatuarable up to 25 mW
same,oxygen sensitivity (slope of line-width versus pO2),linear in pO2 range measured (0-160 or 0-760 mmHg),8.5 mG/mmHg
same,pO2 resolution,physiological range,~0.2 mmHg and ~0.1 mmHg
same,peak-to-peak EPR line-width at 10% oxygen,"suspended in PBS, 10% oxygen (pO2 76 mmHg)",852 mg
same,"response time, deoxygenation",[9],~20 s
same,"response time, oxygenation",[9],~1 s
same,effect of aqueous dispersion media on line-width and lineshape,"water, PBS, cell culture media",not affected
same,"cytotoxicity (light microscopy, Alamar Blue)",[7],no apparent cytotoxicity
same,internalization of particulates in cells,[7]; [8],almost all the cells in the 35 mm dish internalized the particulates
